Source: patent publication US9539300B2, “Modulating disease through genetic engineering of plants” (The Regents of the University of California, priority 2012, dated 2017)
Entries after “also recorded” stand apart in the source; their conditions may differ. Where two headings read alike, the source gives them in different places. Square brackets hold non-standard residues; d marks the D form. Ends that are not written are not given here.

Legend:
human artery wall cells = settings: cited from earlier work; for inhibition of LDL-induced MCP-1 production by cultured human artery wall cells: Datta et al. (2001); for inhibiting monocyte chemotactic activity production by human artery wall cells exposed to human LDL: FIG. 1, adapted from Datta et al. (2001)
[1] = test system: mouse model of ovarian cancer; settings: cited from earlier work
mice [2] = assay: 4F peptide without end groups in mice; type: in vivo
Description: The 4F peptide (Ac-D-W-F-K-A-F-Y-D-K-V-A-E-K-F-K-E-A-F-NH2, (SEQ ID NO:1)) has end blocking groups (Ac— and —NH2) that stabilize the class A amphipathic helix and dramatically increase efficacy (Venkatachalapathi et al. (1993) Proteins Structure Function Genet. 15: 349-359; Yancey et al. (1995) Biochemistry. 34: 7955-7965; Datta et al. (2001) J. Lipid Res. 42: 1096-1104; Anantharamaiah et al. (2007) J. Lipid Res., 48: 1915-1923). […] The required end (protecting) groups for 4F and for a number of other apoA-I mimetic peptides (Navab et al. (2010) Arterioscler. Thromb. Vasc. Biol. 30: 164-168) can only be added by chemical synthesis; living organisms cannot be engineered to make a molecule containing these end groups. Thus, the production of peptide for clinical use at these doses would not be practical because of the cost of producing this amount of peptide by solid phase synthesis.
Unfortunately, producing sufficient peptide to make therapy in humans practical was not likely because the 4F peptide requires end blocking groups that can only be added through chemical synthesis. […] This led us to seek alternative peptides synthesized from all L-amino acids that might be effective without end blocking groups.

apoE−/− mice [3] = settings: cited from earlier work
LDLR−/− mice [4] = settings: cited from earlier work
cholesterol-fed rabbits = settings: 10 mg/kg/day; cited from earlier work
LDLR−/− mice [5] = settings: cited from earlier work; for intact peptide in plasma after oral administration: mouse, in vivo; for inflammatory properties of HDL and LDL in a cell-based assay: single dose 5 mg/kg by stomach tube, four hours, 5 mg/kg
[6] = test system: apolipoprotein (apo)E null mice; settings: cited from earlier work
[7] = test system: LDL-induced monocyte chemoattractant protein-1 (MCP-1) production by cultured human artery wall cells; settings: cited from earlier work
[8] = test system: enzymes involved in the formation of LPA; assay: Microarray of gene expression in the small intestine; type: in vivo, mice; settings: Western Diet or chow, D-4F in drinking water
Procedure: To explore the mechanism of action, a microarray experiment to determine gene expression levels in the small intestine from mice fed the Western Diet or a chow diet and given or not given D-4F in their drinking water was performed. It was previously shown that D-4F administration reduces LPA levels similar to transgenic 6F tomatoes.

[9] = in vivo; cited from earlier work
[10] = test system: apoE−/− mice made diabetic; settings: oral administration; cited from earlier work
apoE−/− mice [11] = settings: cited from earlier work; remark: listed apart in the source
[12] = Identification and quantification of 6F in small intestine and plasma; type: in vivo, mice
Procedure: Female LDLR−/− mice 8-9 months of age (n=6) were fasted overnight and fed WD with transgenic 6F lyophilized tomato powder added to WD to provide 900 μg of 6F in 2 grams of diet. Over a period of 30-90 minutes, each mouse ate all of the 2 grams of diet. Approximately 2 hours after finishing the food the mice were bled and the small intestine was obtained (including contents), homogenized in acetonitrile:water (1:1), chromatographed by HPLC and subjected to SDS PAGE as described in Materials and Methods of Example 3. Plasma was lyophilized and resuspended in acetonitrile:water (1:1), chromatographed by HPLC and subjected to SDS PAGE as described in Materials and Methods of Example 3. […] The lanes were scanned for quantification as described in Materials and Methods of Example 3.
For analysis of the small intestine, 200 mg of small intestine (including contents) were homogenized in 10 mL of acetonitrile:water (1:1) and the homogenates were lyophilized and re-suspended in 400 μL of acetonitrile:water (1:1). […] Samples were run on HPLC using a C-18 Reverse Phase analytical column and a gradient solvent system of acetonitrile: water (30% to 80% in 20 min) in the presence of 0.1% TFA and monitored at 280 nm. […]
The data presented above indicate that the peptide in the transgenic 6F tomatoes is acting in the small intestine. […] No 6F peptide was detected in the plasma of any of the six mice. […]

mice [13] = settings: mouse, in vivo; cited from earlier work
[14] = doses of 4.5 and 45 mg/kg, oral or SQ

Ac-D-W-F-K-A-F-Y-D-K-V-A-E-K-F-K-E-A-F-NH2 (Ac-DWFKAFYDKVAEKFKEAF-NH2) [4F]
inhibition of LDL-induced MCP-1 production by cultured human artery wall cells (human artery wall cells): highly effective
inhibiting monocyte chemotactic activity production by human artery wall cells exposed to human LDL (human artery wall cells): indistinguishable
number of tumor nodules ([1]; mouse, in vivo): reduction
tumor volume ([1]; mouse, in vivo): significant reduction
fold less effective in vivo in the absence of the end groups (mice [2]; mice, without Ac- and -NH2 end groups, unpublished studies): 25,000 fold
plasma levels of free oxidized fatty acids (5-HETE, 15-HETE, 9-HODE, 13-HODE) (apoE−/− mice [3]; after administration of the 4F peptide): significantly decreased
esterified oxidized fatty acid levels (apoE−/− mice [3]; mouse, in vivo): unchanged
plasma levels of 20-HETE (apoE−/− mice [3]; mouse, in vivo): did not decrease

Ac-D-W-F-K-A-F-Y-D-K-V-A-E-K-F-K-E-A-F-NH2 [D-4F] (Ac-[dD][dW][dF][dK][dA][dF][dY][dD][dK][dV][dA][dE][dK][dF][dK][dE][dA][dF]-NH2) [4F peptide synthesized from all D-amino acids]
changes in SAA, triglycerides, HDL-cholesterol and paroxonase activity induced by feeding 15-HETE in chow (LDLR−/− mice [4]; SQ D-4F, chow without WD): significantly ameliorated
HDL-cholesterol (LDLR−/− mice [4]; SQ or oral): increased
plasma SAA levels (LDLR−/− mice [4]; SQ or oral): reduced
plasma triglyceride levels (LDLR−/− mice [4]; SQ or oral): reduced
levels of 20-HETE (LDLR−/− mice [4]; SQ or orally): unchanged
levels of free metabolites of arachidonic and linoleic acids in intestine, liver and hepatic bile (LDLR−/− mice [4]; SQ or orally): significantly reduced
efficacy of L-4F and D-4F by injection (cholesterol-fed rabbits): identical
intact peptide in plasma after oral administration (LDLR−/− mice [5]): intact peptide identified
inflammatory properties of HDL and LDL in a cell-based assay (LDLR−/− mice [5]): dramatically and significantly improved
reduction of aortic atherosclerosis ([6]; 45 mg/kg/day, Western diet, orally or SQ): ~50%
plasma levels of SAA ([6]; 45 mg/kg/day, Western diet): significantly reduced
plasma levels of lysophosphatidic acid ([6]; 45 mg/kg/day, Western diet): significantly reduced
HDL inflammatory index ([6]; doses of 0.15 or 0.45 mg/kg): did not
plasma serum amyloid A (SAA) levels ([6]; doses of 0.15 or 0.45 mg/kg): did not
HDL inflammatory index [6, 14]: significantly reduced
plasma serum amyloid A (SAA) levels [6, 14]: significantly reduced
HDL inflammatory index (HII) ([7]; oral doses of 0.43 and 1.43 mg/kg): not effective
HDL inflammatory index (HII) ([7]; oral doses of 4.3 and 7.14 mg/kg): significantly improved
expression of enzymes involved in the formation of LPA [8]: none of the enzymes involved in the formation of LPA changed their expression significantly
clearance from tissues, particularly liver and kidney [9]: delayed clearance
aortic atherosclerosis [10]: significantly decreased
hepatic content of free arachidonic acid and free oxidized fatty acids [10]: significantly decreased
other plasma lipid or lipoprotein levels [10]: without affecting

Ac-D-W-F-K-A-F-Y-D-K-V-A-E-K-F-K-E-A-F-NH2 [L-4F] (Ac-DWFKAFYDKVAEKFKEAF-NH2) [4F peptide synthesized from all L-amino acids]
efficacy of L-4F and D-4F by injection (cholesterol-fed rabbits): identical
intact peptide in plasma after oral administration (LDLR−/− mice [5]): virtually no intact peptide
inflammatory properties of HDL and LDL in a cell-based assay (LDLR−/− mice [5]): not
HDL inflammatory index (HII) ([7]; 0.042-1.43 mg/kg IV or SQ): no improvement
LPA levels ([1]; L-4F containing blocking groups, b323: in mouse chow, 100 mg/kg/day): significantly reduced; also recorded: significantly decreased
tumor burden ([1]; in mouse chow, 100 mg/kg/day): significantly decreased
clearance from tissues, particularly liver and kidney [9]: this was not the case
aortic lesions (apoE−/− mice [11]; L-4F administered with niclosamide): induced lesion regression
aortic atherosclerosis (apoE−/− mice [11]; in chow 10 mg/kg/day for six months with low dose statin in drinking water): did not significantly change

DWFKAFYDKFFEKFKEFF [7F, apoA-I mimetic peptide]
inhibition of LDL-induced MCP-1 production by cultured human artery wall cells (human artery wall cells): did not

DWFKAFYDKVAEKFKEAF [4F peptide without end blocking groups, 4F peptide lacking the Ac- and -NH2 end groups]
activity of the peptide without end blocking groups (mice [2]; mouse models, data not shown): dramatically reduced

DWLKAFYDKFFEKFKEFF [6F, D-W-L-K-A-F-Y-D-K-F-F-E-K-F-K-E-F-F]
6F peptide in the plasma (not detected; lower limit of detection) ([12]; ~2 hours after eating 900 μg of 6F in transgenic 6F tomato powder): < 100 ng/mL
intact 6F peptide in the small intestine (Mean±SD) ([12]; ~2 hours after eating 900 μg of 6F in transgenic 6F tomato powder in 2 grams of WD, n=6): 15.6±7.4 μg 6F per 200 mg small intestine

DWLKAFYDKVAEKLKEAF [2F, apoA-I mimetic peptide with phenylalanine at positions 6 and 18]
inhibition of LDL-induced MCP-1 production by cultured human artery wall cells (human artery wall cells): not very effective
diet induced atherosclerosis in mice (mice [13]): failed to decrease

DWLKAFYDKVFEKFKEFF [5F, apoA-I mimetic peptide]
inhibition of LDL-induced MCP-1 production by cultured human artery wall cells (human artery wall cells): able to efficiently inhibit
inhibiting monocyte chemotactic activity production by human artery wall cells exposed to human LDL (human artery wall cells): indistinguishable
diet induced atherosclerosis in mice (mice [13]): inhibiting atherosclerosis
tumor angiogenesis in mice (mice [13]): inhibiting tumor angiogenesis
